# According to patent US10683272B2 (THE JOHNS HOPKINS UNIVERSITY, priority 2014, dated 2020):
# pKi: −log10 of the molar value. Where two headings read alike, the source gives them in different places. Where a SMILES comes first, the peptide text is derived from it. [ ]: non-standard residue; d: D form. The star is where a group is joined. ξ: configuration not given here. X1 = O=C(O)CC[C@H](NC(=O)N[C@@H](CCCCNC(=O)CCCCCCC(=O)*)C(=O)O)C(=O)O; DOTA = O=C(O)CN1CCN(CC(=O)O)CCN(CC(=O)*)CCN(CC(=O)O)CC1; ξF = NC(Cc1ccccc1)C(=O)O
# What was measured:
# PSMA− PC3 flu cells = assay: cell viability, MTS assay; type: cell-based, human; conditions: 24 h, up to Gd(III) concentration of 1 mM
# Method: Prior to evaluating Gd3 for live mouse imaging, its biocompatibility was examined using a cell proliferation assay. Various concentrations of Gd3 were incubated with PSMA+PC3 PIP and PSMA− PC3 flu cells, for 24 h. […] However, Gd(III) concentrations of >1 mM affected PSMA+PC3 PIP cell viability (FIG. 8). The observed level of PSMA+PC3 PIP cell death may be attributable to high cell internalization of Gd3, and the long incubation time employed (24 h).
# [1] = r1 relaxivity of solution phantoms at 9.4 T and 25° C.; type: physicochemical; conditions: for r1 relaxivity, ionic (per Gd(III)) / r1 relaxivity, molecular (per contrast agent): 9.4 T, 25° C., PBS; for r1 relaxivity: column T1 of Table 1
# Method: (§1) When imaged at 9.4 T and 25° C., solution phantoms indicated r1 relaxivities in PBS that vary between 3.0 and 6.2 mM^−1 s^−1 per Gd(III) and between 3.0 and 12.5 mM-1 s-1 per contrast agent (Table 1). As expected, Gd1 has the lowest relaxivity followed by Gd2 and Gd3 at 25° C. To determine selectivity and specificity of the agents, human prostate cancer cells genetically modified to express high amounts of PSMA (PC3 PIP) and the corresponding wild-type, PSMA-non-expressing cells (PC3 flu) were selected as negative control (Banerjee, Angew., 2001). […] Enhancement and T1 measurements by means of MRI of the cell pellets in the presence and absence of 50 μM Gd3 indicated higher enhancement and difference in T1 relaxation rates, ΔR1 between Gd3 treated PIP cells and the control PIP cells as compared to the Gd3-treated flu cells and the control flu control cells, after removal of the Gd3 from the cell system by washing with standard medium (FIG. 4B and FIG. 4C).
# PSMA = PSMA (Homo sapiens, UniProt Q04609); assay: fluorescence-based PSMA inhibition assay (Example 1); type: biochemical
# PSMA+ PC3 PIP cells [2] = assay: cell viability, MTS assay; type: cell-based, human; conditions: 24 h
# PSMA+ PC3 PIP cells [3] = assay: ICP-MS analysis of Gd in cell pellets; type: cell-based, human
# Text: Thus, the difference between ΔR1 of the PIP cells and that of the flu cells reflects the change due to the specific Gd3 binding to PSMA in the PIP cells.
# PSMA+ PC3 PIP cells [4] = assay: cell internalization assay (ICP-MS); type: cell-based, human
# Method: FIG. 6A and FIG. 6B show the % ID of Gd3 cell surface bound (A) and internalized (B) at 1, 4 and 24 h;
# Moreover, slightly higher non-specific uptake was associated with Gd2 in PSMA− PC3 flu cells, which might be related to the lower K1 value of this agent compared to Gd1. As a further check on cellular uptake and internalization, a dual modality Gd monomeric contrast agent labeled with Rhodamine-Red™-X was prepared to confirm the PSMA-mediated internalization of this class of contrast agents (FIG. 5D).
# A time-dependent internalization study was performed for Gd3 (FIG. 6A and FIG. 6B) after 1, 4 and 24 h of incubation. […] A similar amount of Gd (˜33-37% ID) was associated with the cell membrane at those same time-points.
# [5] = test system: PSMA+ PC3 PIP and PSMA− PC3 flu cells; assay: T1-weighted MR imaging of cell pellets; type: cell-based, human; conditions: PSMA+ PC3 PIP vs PSMA− PC3 flu cell pellets
# Method: FIG. 4A through FIG. 4C show T1 contrast enhancement generated by Gd3 in an isogenic human PC3 prostate cancer cell pair, PSMA+ PIP and PSMA− flu cells; (A) Color coded T1 maps of PIP and flu cells. Relaxation rates were determined at 25° C. at 9.4 T; (B) Quantification of T1 changes (ΔT1) in PIP and flu cells (n=4, P<0.05) following treatment with Gd3; (C) cellular uptake of Gd3 in PIP and flu cells.
# as §1
# [6] = test system: PSMA+ PC3 PIP and PSMA− PC3 flu tumor xenografts; type: in vivo
# [7] = test system: PSMA+ PC-3 PIP and PSMA− PC-3 flu tumors; assay: small animal PET-CT imaging; type: in vivo, NOD/SCID mice; conditions: 2 h post-injection
# Method: Mice (n=3 for ^86Y-4 or ^86Y-6 and n=2 for ^86Y-5) were injected via the tail vein with 3.33-6.21 MBq (90-168 μCi) of radiotracer formulated in 100 μL of saline at pH ˜7. […] At different time points, anesthetized individual mice were placed in the prone position on the scanner gantry and secured with medical tape while the anesthesia flow rate was increased to 0.8 L/min. Images were reconstructed using the FORE/2D-OSEM method (two iterations, 16 subsets) and included correction for radioactive decay, scanner dead time, and scattered radiation. Partial volume correction (PVC) was not performed. After each PET scan, a CT scan was acquired for anatomic co-registration. To facilitate PET and CT image co-registration, a special animal bed was employed which fits both the PET and CT scanners. The animals were under anesthesia and immobilized when moving between scanners as well as during both scans. The reconstructed PET and CT images were then manually co-registered through rigid transformation, by aligning natural landmarks (such as the animal limbs and the bed contour) using the AMIDE software (from sourceforge.net/amide).
# Dynamic, whole-body PET and CT images were acquired on an eXplore VISTA small-animal PET (GE Healthcare, Little Chalfont, Buckinghamshire, UK) and an X-SPECT small SPECT/CT system (Gamma Medica Ideas, Northridge, Calif.), respectively.
# [8] = PSMA+ PC3 PIP cells, 4 h incubation
# [9] = 0.05 mmol/Kg i.v., first 20 min after injection
# PSMA, sequence (Q04609 whole entry): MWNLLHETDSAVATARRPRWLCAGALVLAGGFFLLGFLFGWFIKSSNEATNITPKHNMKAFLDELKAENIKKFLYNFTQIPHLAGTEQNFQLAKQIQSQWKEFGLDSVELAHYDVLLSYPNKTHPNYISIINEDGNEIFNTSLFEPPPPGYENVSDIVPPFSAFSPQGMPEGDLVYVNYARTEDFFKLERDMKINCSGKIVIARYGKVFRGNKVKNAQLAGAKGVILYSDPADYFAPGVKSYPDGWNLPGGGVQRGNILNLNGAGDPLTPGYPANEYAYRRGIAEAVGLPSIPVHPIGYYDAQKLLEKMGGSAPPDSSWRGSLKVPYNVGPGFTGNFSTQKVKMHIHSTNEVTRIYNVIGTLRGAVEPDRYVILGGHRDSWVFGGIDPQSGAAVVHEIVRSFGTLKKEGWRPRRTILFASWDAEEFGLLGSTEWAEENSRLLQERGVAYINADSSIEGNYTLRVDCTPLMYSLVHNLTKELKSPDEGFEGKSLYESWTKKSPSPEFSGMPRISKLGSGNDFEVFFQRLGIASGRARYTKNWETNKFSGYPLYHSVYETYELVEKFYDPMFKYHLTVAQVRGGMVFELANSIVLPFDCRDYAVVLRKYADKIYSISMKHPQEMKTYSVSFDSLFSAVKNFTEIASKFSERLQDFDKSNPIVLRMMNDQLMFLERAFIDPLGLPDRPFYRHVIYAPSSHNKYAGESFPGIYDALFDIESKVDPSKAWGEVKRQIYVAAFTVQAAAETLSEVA
compound,measurement,setting,value
"(3S,7S)-5,13,20,28-tetraoxo-32-(2,4,6-tris(1-(2-hydroxy-3-(4,7,10-tris(carboxymethyl)-1,4,7,10-tetraazacyclododecan-1-yl)propyl)-1H-1,2,3-triazol-4-yl)phenoxy)-4,6,12,21,27-pentaazadotriacontane-1,3,7,22-tetracarboxylic acid, trigadolinium(III) salt [Gd3]",cell viability,PSMA− PC3 flu cells,~90%
same,"r1 relaxivity, ionic (per Gd(III))",[1],3.3 mM⁻¹ s⁻¹
same,"r1 relaxivity, molecular (per contrast agent)",[1],9.81 mM⁻¹ s⁻¹
same,r1 relaxivity,[1],12.47 mM⁻¹ s⁻¹
same,pKi,PSMA,8.14
same,Gd(III) concentrations that affected cell viability,PSMA+ PC3 PIP cells [2],> 1 mM
same,estimated intracellular Gd(III) concentration,PSMA+ PC3 PIP cells [3],~22.82 µM
same,amount of Gd associated with the cell membrane,"PSMA+ PC3 PIP cells [4]; PSMA+ PC3 PIP cells, 1, 4 and 24 h",33-37 % ID
same,percent of incubated dose internalized,"PSMA+ PC3 PIP cells [4]; PSMA+ PC3 PIP cells, 1 h incubation",28.30±0.47 % ID
same,percent of incubated dose internalized,PSMA+ PC3 PIP cells [4]; [8],39.92±3.59 % ID
same,percent of incubated dose internalized,"PSMA+ PC3 PIP cells [4]; PSMA+ PC3 PIP cells, 24 h incubation",~89.69±3.90 % ID
same,T1-weighted MR contrast of cell pellets,[5],significant MR contrast enhancement in PSMA+PC3 PIP cells
same,contrast enhancement at PIP tumor,"[6]; 0.05 mmol/Kg i.v., 40 min post-injection",36%
same,"lowering of T1 value, PIP tumor",[6]; [9],0.57 s
same,"lowering of T1 value, PSMA flu tumor",[6]; [9],0.63 s
same,"lowering of T1 value, muscle",[6]; [9],0.261 s
same,contrast enhancement at PIP tumor,"[6]; 0.05 mmol/Kg i.v., until 1.5 h post injection",30%
same,"highest contrast enhancement, PSMA− PC3 flu tumors","[6]; 0.06 mmol/kg i.v., 20 min post-injection",~24%
same,"enhancement in R1, PSMA+ PC3 PIP tumor","[6]; 0.06 mmol/kg i.v., 190 min after injection",24%
same,"ΔR1, PSMA− PC3 flu tumors","[6]; 0.06 mmol/kg i.v., after 40 min",< 20%
same,"average enhancement in R1 values, PSMA+ PC3 PIP tumor","[6]; 0.06 mmol/kg i.v., first 40 to 60 min",36%
same,minimum T1 value of PSMA+ PC3 PIP tumor,"[6]; 0.06 mmol/kg i.v., first 40 to 60 min, n=4","1,819±76 ms"
same,"enhancement in R1, PSMA+ PC3 PIP tumor","[6]; 0.06 mmol/kg i.v., until 90 min",29%
"O=C([O-])CN1CCN(CC(=O)[O-])CCN(CC(=O)NCCCCC(NC(=O)CN2CCN(CC(=O)[O-])CCN(CC(=O)[O-])CCN(CC(=O)[O-])CC2)C(=O)NC(CCCCNC(=O)CCCCCCC(=O)NCCCC[C@H](NC(=O)N[C@@H](CCC(=O)O)C(=O)O)C(=O)O)C(=O)O)CCN(CC(=O)[O-])CC1.[Gd+3].[Gd+3] (stereo partly drawn) [Gd2, (30S,34S)-2,9,17,24,32-pentaoxo-1-(4,7,10-tris(carboxymethyl)-1,4,7,10-tetraazacyclododecan-1-yl)-8-(2-(4,7,10-tris(carboxymethyl)-1,4,7,10-tetraazacyclododecan-1-yl)acetamido)-3,10,16,25,31,33-hexaazahexatriacontane-11,30,34,36-tetracarboxylic acid, digadolinium(III) salt]","r1 relaxivity, ionic (per Gd(III))",[1],6.2 mM⁻¹ s⁻¹
same,"r1 relaxivity, molecular (per contrast agent)",[1],12.5 mM⁻¹ s⁻¹
same,r1 relaxivity,[1],5.44 mM⁻¹ s⁻¹
same,pKi,PSMA,7.74
same,estimated intracellular Gd(III) concentration,PSMA+ PC3 PIP cells [3],~12.5 µM
same,percent of incubated dose associated with the cell surface,PSMA+ PC3 PIP cells [4]; [8],3.51±1.32 % ID
same,percent of incubated dose internalized,PSMA+ PC3 PIP cells [4]; [8],21.63±3.51 % ID
same,T1-weighted MR contrast of cell pellets,[5],did not demonstrate T1-weighted MR contrast or changes in R1
O=C([O-])CN1CCN(CC(=O)[O-])CCN(CC(=O)NC(Cc2ccccc2)C(=O)NC(Cc2ccccc2)C(=O)NC(Cc2ccccc2)C(=O)N[C@@H](CCCCNC(=O)CCCCCCC(=O)NCCCC[C@H](NC(=O)N[C@@H](CCC(=O)O)C(=O)O)C(=O)O)C(=O)O)CCN(CC(=O)[O-])CC1.[86Y+3] (some centres unmarked) [^86Y-5] ({DOTA}-[ξF][ξF][ξF]K(X1)-OH),non-specific accumulation on PET/CT,[7],non-specific accumulation in the gastrointestinal tract
